Data as given in patent US9029337B2, “Modulation of factor 7 expression” (Isis Pharmaceuticals, Inc., priority 2007, dated 2015).
Strand notation (5' to 3'): a small letter for the sugar, then the base; units joined by * are phosphorothioate-linked, units joined directly phosphodiester-linked; [ ] holds rarer units or linkages, { } end groups; capitals alone tell only the bases. e = 2'-O-(2-methoxyethyl) (MOE); [5mC] = 5-methylcytosine; d = 2'-deoxy (DNA)

The substances below were run on human Factor 7 mRNA (assay: Antisense inhibition of human Factor 7 mRNA in HepB3 cells, 50 nM antisense oligonucleotide, lipofectin). Conditions: Table 1, 50 nM, lipofectin, approximately 24 hours, relative to untreated control cells.
Format: cell-based
How it was run: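 HepB3 cells were transfected by lipofectin with 50 nM antisense oligonucleotide and harvested after about 24 h. Factor 7 mRNA was measured by real-time RT-PCR (primer probe set RTS 2927 in some runs), normalized to RIBOGREEN total RNA, and reported as percent inhibition versus untreated control.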
With “407604 (antisense e[5mC]*eA*e[5mC]*eA*e[5mC]*dT*dG*dG*dT*d[5mC]*d[5mC]*d[5mC]*d[5mC]*dA*dT*e[5mC]*eA*e[5mC]*eT*eG) [compound 407604]” the “% Inhibition” value was 34%. For “407653 (antisense eA*eA*eT*eA*eT*d[5mC]*dA*dT*dT*dG*dA*d[5mC]*dA*dA*dG*eG*eG*e[5mC]*eT*eG) [compound 407653]”, the “% Inhibition” value was 21%. “407639 (antisense eT*eT*eT*eG*e[5mC]*dA*dG*d[5mC]*d[5mC]*dA*d[5mC]*dT*d[5mC]*dG*dA*eT*eG*eT*eA*e[5mC]) [compound 407639]” was tested, and the “% Inhibition” value was 76%. For “407601 (antisense e[5mC]*eA*eG*e[5mC]*e[5mC]*d[5mC]*dT*dG*dA*dA*dG*d[5mC]*d[5mC]*d[5mC]*dA*eA*eG*e[5mC]*eA*eG) [compound 407601]”, the “% Inhibition” value was 52%. For “407896 (antisense e[5mC]*eG*eT*eG*eT*dG*dG*dT*d[5mC]*dA*d[5mC]*dT*dG*d[5mC]*dA*eG*eT*eA*e[5mC]*eT) [compound 407896]”, the “% Inhibition” value was 73%. In the case of “407598 (antisense e[5mC]*e[5mC]*eA*eT*eG*dA*dT*dG*dA*dA*dA*dT*d[5mC]*dT*d[5mC]*eT*eG*e[5mC]*eA*eG) [compound 407598]”, the “% Inhibition” value is reported as 72%. With “407925 (antisense eG*eA*eA*eT*eA*dT*dA*dT*dG*dG*dG*dA*dT*dT*dT*eG*eG*eT*eG*e[5mC]) [compound 407925]” the “% Inhibition” value was 64%. With “407615 (antisense eG*eA*e[5mC]*eA*e[5mC]*d[5mC]*d[5mC]*d[5mC]*dG*dT*d[5mC]*dT*dG*d[5mC]*d[5mC]*eA*eG*e[5mC]*eA*eG) [compound 407615]” the “% Inhibition” value was 65%. With “407605 (antisense eT*eT*eG*eA*eG*dG*d[5mC]*dA*d[5mC]*dA*d[5mC]*dT*dG*dG*dT*e[5mC]*e[5mC]*e[5mC]*e[5mC]*eA) [compound 407605]” the “% Inhibition” value was 58%. For “407919 (antisense eT*e[5mC]*eG*eA*eT*dG*dT*dA*d[5mC]*dT*dG*dG*dG*dA*dG*eA*e[5mC]*e[5mC]*e[5mC]*eT) [compound 407919]”, the “% Inhibition” value was 84%. In the case of “407629 (antisense eT*e[5mC]*eA*eG*eT*dG*dA*dG*dG*dA*d[5mC]*d[5mC]*dA*d[5mC]*dG*eG*eG*e[5mC]*eT*eG) [compound 407629]”, the “% Inhibition” value is reported as 34%. With “407664 (antisense e[5mC]*eA*eG*eG*eG*d[5mC]*dG*dA*dG*dG*d[5mC]*dA*dA*d[5mC]*d[5mC]*e[5mC]*e[5mC]*eG*eT*eG) [compound 407664]” the “% Inhibition” value was 70%. In the case of “407632 (antisense eT*e[5mC]*e[5mC]*eG*eT*dT*d[5mC]*dG*dG*dG*d[5mC]*dA*dG*dG*d[5mC]*eA*eG*eA*eG*eG) [compound 407632]”, the “% Inhibition” value is reported as 46%. “407934 (antisense e[5mC]*eT*eG*eA*eA*dG*dT*dG*dA*dA*dG*dA*dT*dG*dA*eT*eA*eA*eT*eG) [compound 407934]” was tested, and the “% Inhibition” value was 45%. In the case of “407926 (antisense e[5mC]*e[5mC]*eA*eG*eG*dA*d[5mC]*dA*dA*d[5mC]*d[5mC]*dT*dT*dG*dG*e[5mC]*eA*e[5mC]*eT*e[5mC]) [compound 407926]”, the “% Inhibition” value is reported as 79%. “407892 (antisense e[5mC]*e[5mC]*e[5mC]*e[5mC]*eA*dT*dT*d[5mC]*dT*dG*dG*d[5mC]*dA*dT*dG*eG*eA*e[5mC]*eT*eT) [compound 407892]” was tested, and the “% Inhibition” value was 68%. “407952 (antisense eG*eG*eA*eT*e[5mC]*d[5mC]*dT*dG*dG*dG*dA*dG*d[5mC]*dT*dA*e[5mC]*eA*eG*e[5mC]*e[5mC]) [compound 407952]” was tested, and the “% Inhibition” value was 41%. With “407668 (antisense eG*eA*eA*eG*e[5mC]*d[5mC]*dT*dT*dA*d[5mC]*d[5mC]*dT*dG*d[5mC]*d[5mC]*eA*eT*eG*eG*eA) [compound 407668]” the “% Inhibition” value was 54%. For “407894 (antisense eG*eT*eT*e[5mC]*e[5mC]*dG*dG*d[5mC]*d[5mC]*d[5mC]*dT*d[5mC]*dG*dA*dA*eG*eG*e[5mC]*eA*eG) [compound 407894]”, the “% Inhibition” value was 77%.

Same assay, conditions: Table 6, 50 nM, lipofectin, approximately 24 hours
For “422129 (antisense eG*eT*eT*eA*e[5mC]*dT*dG*dA*dG*d[5mC]*dG*d[5mC]*dG*dG*dA*eA*eG*eA*eA*eG) [compound 422129]”, the “% Inhibition” value was 45%. With “422199 (antisense eG*eG*eT*dT*dA*d[5mC]*dT*dG*dA*dG*d[5mC]*dG*d[5mC]*dG*dG*dA*dA*eG*eA*eA) [compound 422199]” the “% Inhibition” value was 65%. For “422276 (antisense eG*eG*dT*dT*dA*d[5mC]*dT*dG*dA*dG*d[5mC]*dG*d[5mC]*dG*dG*eA*eA*eG*eA*eA) [compound 422276]”, the “% Inhibition” value was 66%. “422191 (antisense eA*eG*e[5mC]*dG*d[5mC]*dG*dG*dA*dA*dG*dA*dA*dG*dG*dG*dA*d[5mC]*eG*eG*eA) [compound 422191]” was tested, and the “% Inhibition” value was 27%. “422193 (antisense eT*eG*eA*dG*d[5mC]*dG*d[5mC]*dG*dG*dA*dA*dG*dA*dA*dG*dG*dG*eA*e[5mC]*eG) [compound 422193]” was tested, and the “% Inhibition” value was 6%. “422194 (antisense e[5mC]*eT*eG*dA*dG*d[5mC]*dG*d[5mC]*dG*dG*dA*dA*dG*dA*dA*dG*dG*eG*eA*e[5mC]) [compound 422194]” was tested, and the “% Inhibition” value was 11%.

Same assay, conditions: Table 13 (microwalk), 50 nM, lipofectin, approximately 24 hours
“422085 (antisense eG*e[5mC]*eA*eT*eG*dG*dT*dG*dA*dT*dG*d[5mC]*dT*dT*d[5mC]*eT*eG*eA*eA*eT) [compound 422085]” was tested, and the “% Inhibition” value was 70%.

Same assay, conditions: gapmers targeted to nucleobases 4868 to 4899 of SEQ ID NO: 1, Table 8
“422213 (antisense eT*e[5mC]*eT*dG*d[5mC]*dA*dG*dG*dA*dG*d[5mC]*dG*dG*d[5mC]*d[5mC]*dT*dA*eA*eA*eT) [compound 422213]” was tested, and the “% Inhibition of human Factor 7 mRNA levels” value was 67%.

Same assay, conditions: lipofectin, 50 nM antisense oligonucleotide, approximately 24 hours, Factor 7 mRNA by real-time RT-PCR (RTS 2927), relative to untreated control
In the case of “416529 (antisense eG*eG*eG*e[5mC]*eT*dG*dA*dG*dA*d[5mC]*dT*dG*dA*dG*dG*eT*e[5mC]*eA*eG*e[5mC]) [compound 416529]”, the “% Inhibition” value is reported as 18%. In the case of “416423 (antisense eG*eT*eG*eT*eT*dT*d[5mC]*dT*d[5mC]*d[5mC]*dT*d[5mC]*d[5mC]*dT*dG*eA*eG*eG*e[5mC]*e[5mC]) [compound 416423]”, the “% Inhibition” value is reported as 51%. In the case of “416515 (antisense eT*eA*eG*eG*e[5mC]*dA*dT*dG*dA*d[5mC]*d[5mC]*dA*dT*d[5mC]*d[5mC]*eT*e[5mC]*eA*eA*eT) [compound 416515]”, the “% Inhibition” value is reported as 39%. For “416558 (antisense eT*eG*eA*e[5mC]*eA*dG*d[5mC]*dA*d[5mC]*dG*dA*dA*dG*d[5mC]*d[5mC]*e[5mC]*eA*eG*eA*eG) [compound 416558]”, the “% Inhibition” value was 19%. With “416459 (antisense eT*eG*eG*eT*e[5mC]*dA*dG*dT*dG*dA*dG*dG*dA*d[5mC]*d[5mC]*eA*e[5mC]*eG*eG*eG) [compound 416459]” the “% Inhibition” value was 23%. For “416557 (antisense eT*e[5mC]*e[5mC]*e[5mC]*eA*dG*dG*d[5mC]*dA*dA*dA*dG*d[5mC]*dT*dG*e[5mC]*eT*e[5mC]*eA*eG) [compound 416557]”, the “% Inhibition” value was 56%. For “416495 (antisense eT*e[5mC]*eT*eA*eG*dA*dA*dT*dT*d[5mC]*d[5mC]*dA*dA*dA*d[5mC]*e[5mC]*e[5mC]*e[5mC]*eT*eA) [compound 416495]”, the “% Inhibition” value was 0%. “416530 (antisense eA*eG*eG*eG*eT*dA*dG*d[5mC]*d[5mC]*dT*dT*dT*dG*d[5mC]*d[5mC]*eT*eT*eG*eG*e[5mC]) [compound 416530]” was tested, and the “% Inhibition” value was 35%. With “416501 (antisense e[5mC]*eT*eG*e[5mC]*e[5mC]*d[5mC]*dT*dT*d[5mC]*d[5mC]*dA*d[5mC]*d[5mC]*dA*dA*eG*eT*eT*eT*eA) [compound 416501]” the “% Inhibition” value was 18%. “416555 (antisense eA*eA*eA*eG*eA*dT*d[5mC]*dA*dG*dG*d[5mC]*dA*dA*dA*dG*eA*eT*e[5mC]*e[5mC]*e[5mC]) [compound 416555]” was tested, and the “% Inhibition” value was 6%.

Same assay, conditions: oligonucleotides targeted to nucleobases 11830 to 11869 of SEQ ID NO: 1 (Table 9)
In the case of “422242 (antisense eG*eG*dA*dG*dA*d[5mC]*dA*dA*dT*dG*dG*dT*d[5mC]*dA*dG*eG*eG*e[5mC]*eT*eG) [compound 422242]”, the “% Inhibition (human Factor 7 mRNA levels)” value is reported as 64%. With “422168 (antisense eT*eG*eA*dG*dG*dA*dG*dA*d[5mC]*dA*dA*dT*dG*dG*dT*d[5mC]*dA*eG*eG*eG) [compound 422168]” the “% Inhibition (human Factor 7 mRNA levels)” value was 30%. “422232 (antisense eG*eT*d[5mC]*dA*dG*dG*dG*d[5mC]*dT*dG*dG*dT*dT*dT*dT*eG*eG*eA*eG*eG) [compound 422232]” was tested, and the “% Inhibition (human Factor 7 mRNA levels)” value was 41%. “422092 (antisense eA*eT*eG*eG*eT*d[5mC]*dA*dG*dG*dG*d[5mC]*dT*dG*dG*dT*eT*eT*eT*eG*eG) [compound 422092]” was tested, and the “% Inhibition (human Factor 7 mRNA levels)” value was 36%. With “422250 (antisense e[5mC]*eT*dG*dG*d[5mC]*dT*dG*dA*dG*dG*dA*dG*dA*d[5mC]*dA*eA*eT*eG*eG*eT) [compound 422250]” the “% Inhibition (human Factor 7 mRNA levels)” value was 54%. “422156 (antisense eG*eG*eT*d[5mC]*dA*dG*dG*dG*d[5mC]*dT*dG*dG*dT*dT*dT*dT*dG*eG*eA*eG) [compound 422156]” was tested, and the “% Inhibition (human Factor 7 mRNA levels)” value was 38%. For “422165 (antisense eG*eG*eA*dG*dA*d[5mC]*dA*dA*dT*dG*dG*dT*d[5mC]*dA*dG*dG*dG*e[5mC]*eT*eG) [compound 422165]”, the “% Inhibition (human Factor 7 mRNA levels)” value was 57%.

Same assay, conditions: oligonucleotides targeted to nucleobases 13760 to 13789 of SEQ ID NO: 1 (Table 10)
With “422259 (antisense e[5mC]*eG*d[5mC]*d[5mC]*dA*d[5mC]*d[5mC]*d[5mC]*dG*d[5mC]*d[5mC]*dG*dG*d[5mC]*dT*e[5mC]*eT*eG*e[5mC]*eT) [compound 422259]” the “% Inhibition (human Factor 7 mRNA levels)” value was 61%.

Same assay, conditions: oligonucleotides targeted to nucleobases 15098 to 15122 of SEQ ID NO: 1 (Table 12)
In the case of “422137 (antisense eA*e[5mC]*eA*eG*e[5mC]*dA*d[5mC]*dA*d[5mC]*dA*dT*dG*dG*dA*dG*eT*e[5mC]*eA*eG*e[5mC]) [compound 422137]”, the “% Inhibition (human Factor 7 mRNA levels)” value is reported as 45%.
